This note sets out measurements from patent publication US20240010726A1, “LFA-1 SIGNALLING MEDIATOR FOR USE IN CANCER THERAPY” (Universität Basel, priority 2020, published 2024).

For one experiment, the system named is human naïve CD8 T cells. In words: Metabolic flux analysis, glycolytic switch of naïve CD8 T cells. It is filed as cell-based. Particulars: anti-CD3 or anti-CD3/anti-CD28 Ab; 0 mM vs 1.2 mM Mg^2+. The protocol: FIG. 2: Extracellular magnesium promotes memory-specific activation via LFA-1. Glycolytic switch of human EM CD8 T cells (a) and naïve CD8 T cells (b) subsets upon injection of anti-CD3 Ab only, or anti-CD3 and anti-CD28 Ab, was assessed by metabolic flux analysis in medium containing either 1.2 mM Mg^2+, 0 mM Mg^2+, or medium which was reconstituted from 0 mM to 1.2 mM Mg^2+ immediately prior to activation (0→1.2 mM Mg^2+). (a) Results for human effector memory (EM) and (b) for human naïve CD8 T cells. Glycolytic switch was quantified by subtracting […] measurements. (c) Flow cytometric analysis of surface activation markers on human EM CD8 T cells 24 hours after activation by plate-bound anti-CD3 Ab and soluble anti-CD28 Ab, in 1.2 mM and 0 mM Mg^2+ media, respectively. (d) Abundance of inflammatory cytokines in corresponding EM CD8 T cell culture supernatants, determined by CBA. (e) CD11a (LFA-1) surface expression on human naïve and EM CD8 T cells as well PHA T cell blasts. Flow cytometry-based assessment of total LFA-1 expression assessed by mAb TS2/4 (f), closed conformation of αL by mAb HI111 (g), extended conformation of LFA-1 by mAb Kim127 (h), open head-piece conformation of LFA-1 by mAb m24 (i), phosphorylation of focal adhesion kinase (FAK) […] as well TNF expression (k)±TCR-induced activation in different extracellular Mg^2+ concentrations. […]

Another experiment addresses T1, LFA-1 (Homo sapiens, UniProt P05107+P20701).
T1 construct: endogenous in cells; host or cells: primary human T cells from healthy donors: PHA-induced T cell blasts, sorted EM and naive CD8 T cells, and NY-ESO-1 TCR-transduced REP T cells
Kind of experiment: LFA-1 conformations on REP T cells co-incubated with peptide-pulsed T2 target cells. It is filed as cell-based. The following applies: T2 cells pulsed with 10^−8 M 9c peptide; E:T 1:1; presence vs absence of extracellular Mg^2+. The protocol: FIG. 3: Magnesium regulates LFA-1 mediated T cell activation and cytotoxicity as well BiTE- and CAR T-cell functionality. (a) Glycolytic switch of murine WT and LFA-1^-/- CTLs upon injection of anti-CD3/28 Ab in medium containing 1.2 mM Mg^2+ and 0 mM Mg^2+, presented as quantification of summarized data with n=4 mice. (b) Calcium flux in WT and LFA-1^-/- Jurkat T cells stimulated with anti-CD3 Ab in 1.2 mM and 0 mM Mg^2+ medium, respectively. Cells were loaded with Fluo4, and signal intensity as recorded by plate reader, was normalized to unstimulated baseline values. […] Quantified results of n=3 mice with 3 technical replicates each. […] The effector to target cell ratio was 3:1. Results are quantified of n=3 mice with 3 technical replicates each. (e) Representative CD11a (LFA-1) surface expression on human naïve and EM CD8 T cells, PHA T cell blasts and REP T cells, assessed by flow cytometry. […] The effector to target cell ratio was 1:1. Data is presented as quantified results of n=5 healthy donors (f, g, h), n=3 healthy donors with 2 technical replicates each or n=1 healthy donor with 4 technical replicates (j). […] The effector to target cell ratio was 1:1. Data is presented as quantified results of n=1 healthy donor with 4 technical replicates. […] (n) Representative histogram of CD11a expression on PHA-blasts, untransduced T cells as well anti-CD19 expressing CAR T cells. […] Pooled results of n=6 from 2 independent experiments are shown. (p) Abundance of IFNγ in cell culture supernatants corresponding to the conditions depicted in (o) at 24 hours was determined by ELISA (n=8, 3 independent experiments). (q) Tumor growth curves of mice placed on either Mg^2+-depleted diet or respective control diet and treated with either anti-PSMA CAR T cells, untransduced T cells or saline solution. Representative of n=2 independent experiments with n=6 mice per group. REP […] target cells in flat bottom 96 well-plate, if not indicated otherwise, at a 1:1 ratio (4-6×10^4 each). Optimal ratio had been titrated for each donor beforehand. […]

T1 sequence (P20701 26-1170): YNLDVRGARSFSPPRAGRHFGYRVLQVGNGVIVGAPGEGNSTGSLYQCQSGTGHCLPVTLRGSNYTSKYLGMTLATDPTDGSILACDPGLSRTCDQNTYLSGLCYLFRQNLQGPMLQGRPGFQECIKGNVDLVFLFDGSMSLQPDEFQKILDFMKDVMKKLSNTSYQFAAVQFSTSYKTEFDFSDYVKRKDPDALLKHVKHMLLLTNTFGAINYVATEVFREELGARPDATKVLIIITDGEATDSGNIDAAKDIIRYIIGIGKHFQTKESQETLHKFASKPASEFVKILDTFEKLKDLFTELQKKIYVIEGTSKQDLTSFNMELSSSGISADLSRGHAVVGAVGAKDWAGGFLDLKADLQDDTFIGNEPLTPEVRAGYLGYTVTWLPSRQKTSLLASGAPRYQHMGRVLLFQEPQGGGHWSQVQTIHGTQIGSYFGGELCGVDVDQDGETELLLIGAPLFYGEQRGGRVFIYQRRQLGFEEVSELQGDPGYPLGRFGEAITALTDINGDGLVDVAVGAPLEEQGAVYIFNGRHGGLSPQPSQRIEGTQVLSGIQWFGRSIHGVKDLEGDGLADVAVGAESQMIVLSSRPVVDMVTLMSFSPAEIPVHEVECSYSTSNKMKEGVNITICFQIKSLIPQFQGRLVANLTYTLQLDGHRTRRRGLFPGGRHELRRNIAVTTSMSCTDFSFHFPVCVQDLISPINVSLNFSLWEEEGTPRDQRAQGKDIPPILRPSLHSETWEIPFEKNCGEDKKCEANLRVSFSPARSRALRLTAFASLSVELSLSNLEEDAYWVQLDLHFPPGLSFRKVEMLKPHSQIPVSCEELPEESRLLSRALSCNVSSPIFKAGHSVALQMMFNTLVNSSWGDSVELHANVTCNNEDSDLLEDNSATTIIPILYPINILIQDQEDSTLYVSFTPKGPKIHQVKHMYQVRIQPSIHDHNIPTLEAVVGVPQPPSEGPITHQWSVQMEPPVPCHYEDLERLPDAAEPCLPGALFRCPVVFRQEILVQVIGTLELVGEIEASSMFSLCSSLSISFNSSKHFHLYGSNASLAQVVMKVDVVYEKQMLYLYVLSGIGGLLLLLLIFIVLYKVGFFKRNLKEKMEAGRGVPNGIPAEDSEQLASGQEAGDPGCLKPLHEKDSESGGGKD
T1 sequence (P05107 23-769): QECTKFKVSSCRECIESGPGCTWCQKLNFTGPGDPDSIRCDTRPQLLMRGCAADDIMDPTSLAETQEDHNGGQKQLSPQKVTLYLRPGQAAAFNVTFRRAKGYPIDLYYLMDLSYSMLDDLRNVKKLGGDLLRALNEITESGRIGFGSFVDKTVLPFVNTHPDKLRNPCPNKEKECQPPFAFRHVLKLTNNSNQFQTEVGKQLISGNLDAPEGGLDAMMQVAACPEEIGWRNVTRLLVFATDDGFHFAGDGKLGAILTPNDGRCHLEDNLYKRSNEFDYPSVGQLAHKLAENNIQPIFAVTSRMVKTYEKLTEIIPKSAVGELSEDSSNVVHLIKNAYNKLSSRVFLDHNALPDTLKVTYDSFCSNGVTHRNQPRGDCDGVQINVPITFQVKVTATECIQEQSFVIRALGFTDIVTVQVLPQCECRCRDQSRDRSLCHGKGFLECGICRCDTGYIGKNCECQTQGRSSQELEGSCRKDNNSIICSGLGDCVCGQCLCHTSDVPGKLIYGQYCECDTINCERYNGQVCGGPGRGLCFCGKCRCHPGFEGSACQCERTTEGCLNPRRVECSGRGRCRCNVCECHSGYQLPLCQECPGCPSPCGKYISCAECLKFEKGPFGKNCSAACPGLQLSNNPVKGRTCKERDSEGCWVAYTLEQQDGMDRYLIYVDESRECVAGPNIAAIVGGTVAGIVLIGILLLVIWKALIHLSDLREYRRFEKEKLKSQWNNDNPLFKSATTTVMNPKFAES

In the case of `[Mg+2]` [Mg^2+, Magnesium], in the experiment on human naïve CD8 T cells, the “Glycolytic switch (ECAR) of naïve CD8 T cells” value is “no impaired activation-induced upregulation of glycolysis”. Moreover, at LFA-1, the “Extended LFA-1 conformation on REP T cells” value was “significant increase of extended LFA-1”; the “Inactive LFA-1 with bent conformation on REP T cells” value is “reduced abundance of inactive, bent conformation”; the “LFA-1 with open head-piece on REP T cells” value was “significant increase”.
